ChEMBL document CHEMBL4184146, “Interrogating the Roles of Post-Translational Modifications of Non-Histone Proteins” (J Med Chem, 2018)

What was measured:
[1] = target: T1, Protein farnesyltransferase (Homo sapiens, UniProt P49354+P49356); test: Inhibition of FTase isolated from human Burkitt's lymphoma cells assessed as decrease in transfer of [3H]farnesyl from [3H]farnesyl PPi to H-Ras-CVLS
[2] = target: T2, Geranylgeranyl transferase type I (Homo sapiens, UniProt P49354+P53609); test: Inhibition of GGTase1 isolated from human Burkitt's lymphoma cells assessed as decrease in transfer of [3H]H]geranylgeranyl from [3H]geranylgeranyl PPi to H-Ras-CVLL
[3] = target: T1, Protein farnesyltransferase; test: Inhibition of FTase (unknown origin) expressed in mouse NIH-3T3 cells transfected with human H-Ras assessed as decrease in farnesylation of H-Ras after 24 hrs by chemoluminescence assay; type: cell-based
[4] = target: T2, Geranylgeranyl transferase type I; test: Inhibition of GGTase1 (unknown origin) expressed in mouse NIH-3T3 cells transfected with k-Ras4B assessed as decrease in geranylgeranylation of k-Ras4B after 24 hrs by chemoluminescence assay; type: cell-based
[5] = target: T1, Protein farnesyltransferase; test: Inhibition of FTase (unknown origin); type: protein-complex assay
[6] = target: T2, Geranylgeranyl transferase type I; test: Inhibition of GGTase1 (unknown origin); type: protein-complex assay
[7] = target: T1, Protein farnesyltransferase; test: Inhibition of FTase (unknown origin) using H-ras as substrate; type: protein-complex assay
[8] = target: geranylgeranyltransferase type-I (Rattus norvegicus, UniProt P53610+Q04631); test: Inhibition of rat brain GGTase1 assessed as decrease in transfer of [3H]H]geranylgeranyl from [3H]geranylgeranyl PPi to H-Ras-CVLL after 30 mins by liquid scintillation counting method
[9] = target: T3, Glycylpeptide N-tetradecanoyltransferase (Neosartorya fumigata (strain ATCC MYA-4609 / Af293 / CBS 101355 / FGSCA1100) (Aspergillus fumigatus), UniProt Q9UVX3); test: Inhibition of recombinant Aspergillus fumigatus NMT (Gln86 to Leu492 residues) expressed in Escherichia coli BL21(DE3) pLysS cells using [3H]-myristoyl coenzyme A/CAP5.5 as substrate after 20 mins by scintillation proximity assay
T3 sequence (Q9UVX3 whole entry): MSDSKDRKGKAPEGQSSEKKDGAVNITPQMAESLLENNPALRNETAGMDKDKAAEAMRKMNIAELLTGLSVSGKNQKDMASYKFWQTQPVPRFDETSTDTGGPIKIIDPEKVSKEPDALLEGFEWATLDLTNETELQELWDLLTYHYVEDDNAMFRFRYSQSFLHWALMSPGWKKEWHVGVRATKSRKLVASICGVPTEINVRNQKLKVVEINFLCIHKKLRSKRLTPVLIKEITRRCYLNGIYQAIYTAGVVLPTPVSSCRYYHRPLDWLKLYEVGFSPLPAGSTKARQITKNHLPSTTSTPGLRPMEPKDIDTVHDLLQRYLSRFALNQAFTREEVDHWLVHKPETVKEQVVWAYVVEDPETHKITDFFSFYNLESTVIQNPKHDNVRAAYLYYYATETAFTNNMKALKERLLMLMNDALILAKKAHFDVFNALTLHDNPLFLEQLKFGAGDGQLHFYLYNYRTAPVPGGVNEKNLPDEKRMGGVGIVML

**Q.** For `CC(C)C[C@H](NC(=O)c1ccc(NC[C@@H](N)CS)cc1-c1cccc2ccccc12)C(=O)O`, which IC50 [1] is on record?
**A.** 200 nM

**Q.** What about the IC50 [2] of the same compound?
**A.** 50 nM

**Q.** `COC(=O)[C@H](CC(C)C)NC(=O)c1ccc(NC[C@@H](N)CS)cc1-c1ccccc1` was tested. Which IC50 [3] did it give?
**A.** > 30000 nM

**Q.** What about the IC50 [4] of the same compound?
**A.** 2000 nM

**Q.** What does the source list for `COC(=O)[C@H](CCSC)NC(=O)CN1C[C@H](N(C)C(=O)[C@H](N)CS)N=C(c2ccccc2)c2ccccc21`?
**A.** IC50 [5]: 41 nM; IC50 [6]: > 1000 nM

**Q.** With `O=C(c1cn(Cc2cncn2Cc2ccc(Br)cc2)cc1-c1cccc2ccccc12)N1CCOCC1` as the compound, how does the IC50 [7] read?
**A.** 0.8 nM

**Q.** With `NC(=O)N1CCC(CC(=O)N2CCC([C@H]3c4ncc(Br)cc4CCc4cc(Cl)cc(Br)c43)CC2)CC1` [LONAFARNIB] as the compound, how does the IC50 [8] read?
**A.** > 1000 nM

**Q.** With `Cc1c(NS(=O)(=O)c2c(Cl)cc(-c3ccnc(N4CCNCC4)c3)cc2Cl)c(CC(C)C)nn1C` [ZELENIRSTAT] as the compound, how does the IC50 [9] read?
**A.** 12 nM
